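Cultured in 96-well plates, cells were exposed to test compound for 48 hours across five concentrations. GI50 = concentration required for 50% inhibition of growth.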 Activity calls are given as the source filed them. Cut-off read from the data, not from the text of the source: active = GI50 up to about 1.1 µM and inactive = higher.
Tests used:
Test in all cases: NCI anticancer screen, dose series, 48 h
DLD-1 = tested on: DLD-1
DMS-273 = tested on: DMS-273
HOP-18 = tested on: HOP-18
KM-20L2 = tested on: KM-20L2
M19-MEL = tested on: M19-MEL
RXF 631 = tested on: RXF 631
SNB-78 = tested on: SNB-78
XF498 = tested on: XF498
DMS-114 = tested on: DMS-114

Compound	GI50 (DLD-1)	GI50 (DMS-273)	GI50 (HOP-18)	GI50 (KM-20L2)	GI50 (M19-MEL)	GI50 (RXF 631)	GI50 (SNB-78)	GI50 (XF498)	GI50 (DMS-114)
COC(=O)/C=C(C)/C=C/c1c(C)c(C(C)=O)c(C)n1C	> 100 µM (inactive)	> 100 µM (inactive)	> 100 µM (inactive)	> 100 µM (inactive)	> 100 µM (inactive)	> 100 µM (inactive)	> 100 µM (inactive)	> 100 µM (inactive)	
CCOC(=O)C1C=C2O[C@@H]3OC4(CCCCC4)O[C@@H]3C2C2C(=O)CCC(=O)[C@@]12C(=O)OC (stereo partly drawn)	> 100 µM (inactive)	> 100 µM (inactive)	> 100 µM (inactive)	> 100 µM (inactive)	> 100 µM (inactive)	> 100 µM (inactive)	> 100 µM (inactive)	> 100 µM (inactive)	> 100 µM (inactive)
COC(=O)C12C3C4C1C1C2C3C41C(=O)N(C(C)C)C(C)C (stereo not drawn)	> 100 µM (inactive)	> 100 µM (inactive)		> 100 µM (inactive)	> 100 µM (inactive)		> 100 µM (inactive)		> 100 µM (inactive)
CC(=O)O[C@H]1C=CC23OC(=O)[C@]1(C)[C@H]2[C@H](C(=O)O)C12CC(=O)[C@@](CO)(CC[C@H]13)C2	> 100 µM (inactive)	> 100 µM (inactive)	> 100 µM (inactive)	> 100 µM (inactive)	> 100 µM (inactive)	> 100 µM (inactive)	> 100 µM (inactive)	> 100 µM (inactive)	
O=C(CC(C(=O)c1ccsc1)c1cccs1)c1cccs1 (stereo not drawn)	> 100 µM (inactive)	84.5 µM (inactive)		> 100 µM (inactive)	96.2 µM (inactive)		> 100 µM (inactive)	70.1 µM (inactive)	41.9 µM (inactive)
CCOC1c2cc(OC)c(OC)cc2-c2ccc3ccccc3c2N1C (stereo not drawn)	25.5 µM (inactive)	6.46 µM (inactive)	42.4 µM (inactive)	15.3 µM (inactive)	11.2 µM (inactive)	22.9 µM (inactive)	33.6 µM (inactive)	14.8 µM (inactive)	9.35 µM (inactive)
COc1cc(C(O)C(=O)c2nc3ccc([N+](=O)[O-])cc3nc2O)ccc1O (stereo not drawn)	> 100 µM (inactive)	83.9 µM (inactive)		69.7 µM (inactive)	> 100 µM (inactive)		> 100 µM (inactive)	> 100 µM (inactive)	66.8 µM (inactive)
NC1=NC(=O)C(CC(=O)Nc2ccc(Cl)cc2Cl)S1 (stereo not drawn)	> 100 µM (inactive)	> 100 µM (inactive)		> 100 µM (inactive)	> 100 µM (inactive)		> 100 µM (inactive)	> 100 µM (inactive)	
COc1cc2c(c(OC)c1OC)-c1ccc(SC)c(=O)cc1[C@@H](NCc1ccccc1[N+](=O)[O-])CC2	0.00762 µM (active)	0.004 µM (active)		0.00314 µM (active)	0.004 µM (active)	0.01 µM (active)	0.00682 µM (active)	0.0176 µM (active)	0.00796 µM (active)
O=[N+]([O-])c1cc(C(F)(F)F)cc([N+](=O)[O-])c1CCl	1.83 µM (inactive)	1.23 µM (inactive)	1.93 µM (inactive)	3.98 µM (inactive)	1.57 µM (inactive)	2.8 µM (inactive)	4.69 µM (inactive)	8.97 µM (inactive)	0.52 µM (active)
COC(OC)C(C)CC(=O)N(C)C (stereo not drawn)	> 100 µM (inactive)	> 100 µM (inactive)		> 100 µM (inactive)	> 100 µM (inactive)		> 100 µM (inactive)	> 100 µM (inactive)	> 100 µM (inactive)
O=C(Nc1cc(Cl)c(Cl)cc1Cl)C(=O)C1C(=O)NC(=S)NC1=O	> 100 µM (inactive)	> 100 µM (inactive)	> 100 µM (inactive)	> 100 µM (inactive)	> 100 µM (inactive)	> 100 µM (inactive)	> 100 µM (inactive)	> 100 µM (inactive)	> 100 µM (inactive)
CSC(=S)NNC(=O)c1ccncc1	13.5 µM (inactive)	21.7 µM (inactive)	25.2 µM (inactive)	32.7 µM (inactive)	19.1 µM (inactive)	30 µM (inactive)	28.2 µM (inactive)	21.9 µM (inactive)	14.3 µM (inactive)
C#CCNC(=O)NCCCCC(NC(=O)OCc1ccccc1)C(=O)OCc1ccccc1 (stereo not drawn)	49 µM (inactive)	> 71.3 µM (inactive)	> 100 µM (inactive)	> 100 µM (inactive)	38.7 µM (inactive)	> 58.5 µM (inactive)	> 80.9 µM (inactive)	18.5 µM (inactive)	27.7 µM (inactive)
O=C(/C=C/c1ccc(OCCCOc2ccc(/C=C/C(=O)c3ccc(Cl)cc3)cc2)cc1)c1ccc(Cl)cc1	> 100 µM (inactive)	> 100 µM (inactive)	5.42 µM (inactive)	> 100 µM (inactive)	> 100 µM (inactive)		> 100 µM (inactive)	> 100 µM (inactive)	> 100 µM (inactive)
CC1=CC(=O)N(c2c(C)cccc2Cl)C(C)N1 (stereo not drawn)	> 100 µM (inactive)	> 100 µM (inactive)	> 100 µM (inactive)	> 100 µM (inactive)	> 100 µM (inactive)	> 100 µM (inactive)	> 100 µM (inactive)		> 100 µM (inactive)
Cc1ccc(C)c(NC(=O)/C(=N\NC(N)=S)C(C#N)c2ccccc2)c1 (stereo not drawn)	> 100 µM (inactive)	> 100 µM (inactive)	> 100 µM (inactive)	> 100 µM (inactive)	> 100 µM (inactive)			> 100 µM (inactive)	> 100 µM (inactive)
[N-]=[N+]=N/C1=C/CCCCC(=O)C1	> 100 µM (inactive)	> 100 µM (inactive)		> 100 µM (inactive)	> 100 µM (inactive)		> 100 µM (inactive)	> 100 µM (inactive)	> 100 µM (inactive)
COc1cccc(NC(=O)C(C)(C)C)c1C=O	51.9 µM (inactive)		91 µM (inactive)	43.8 µM (inactive)	59.3 µM (inactive)	81.3 µM (inactive)	51.2 µM (inactive)	7.38 µM (inactive)	34.6 µM (inactive)
Nc1ccn(CCNCCn2cnc3nc(N)[nH]c(=O)c32)c(=O)n1	> 100 µM (inactive)		> 100 µM (inactive)	> 100 µM (inactive)		> 100 µM (inactive)	> 100 µM (inactive)	> 100 µM (inactive)	> 100 µM (inactive)
[O-][n+]1c2cc3c(cc2[n+]([O-])c2c(O)cccc21)CN(CCN1CCOCC1)C3		53.6 µM (inactive)	> 100 µM (inactive)	35.4 µM (inactive)	14.5 µM (inactive)	> 100 µM (inactive)	32.4 µM (inactive)	12.5 µM (inactive)	8.41 µM (inactive)
O=C(c1ccccc1)C(c1ccccc1)C1(O)C(=O)Nc2ccc([N+](=O)[O-])cc21 (stereo not drawn)	> 100 µM (inactive)			> 100 µM (inactive)	26.9 µM (inactive)	> 100 µM (inactive)	> 100 µM (inactive)	> 100 µM (inactive)	19.8 µM (inactive)
O=C(CC1(O)C(=O)Nc2ccc([N+](=O)[O-])cc21)c1ccc(Br)cc1 (stereo not drawn)	45.3 µM (inactive)		> 100 µM (inactive)	> 100 µM (inactive)	19.5 µM (inactive)		23.2 µM (inactive)	32.3 µM (inactive)	32.1 µM (inactive)

Source: ChEMBL document CHEMBL1201862, “PubChem BioAssay data set” (2004)
